Patent US20240299316A1, “METHOD FOR TREATING CANCER WITH A[…] RADIATION” (LANTERN PHARMA INC., priority 2021, published 2024)
“Also recorded” adds a separate entry of the source.

Tested on: Panc03.27 xenografts
Assay: Radiation (RT) pretreatment followed by LP-184 in subcutaneous Panc03.27 pancreatic xenografts
Format: in vivo, Mice
Settings: for interaction of radiation with LP-184 on tumor volume (synergy) / mean terminal tumor volume of LP-184+RT group relative to LP-184 alone or RT alone: 4 Gy RT + 3 mg/kg i.p. LP-184, 3 mg/kg; for interaction of radiation with LP-184 on tumor volume (synergy): average tumor volume over days post treatment initiation; for mean terminal tumor volume of LP-184+RT group relative to LP-184 alone or RT alone: p value 0.017
Protocol: Radiation (RT) pretreatment of pancreatic tumors and subsequent (−)-hydroxyureamethyl acylfulvene treatment in vivo, 4 Gy RT was administered once weekly followed the next day by 3 mg/kg i.p. LP-184 in Panc03.27 xenografts for a total of 3 weeks. Mice bearing pre-established subcutaneous. Panc03.27 xenografts were treated with vehicle control, 4 Gy RT alone, 3 mg/kg LP-184 alone or their combination.
A line plot of average tumor volume in cubic millimeters over days post treatment initiation in Panc03.27 subcutaneous xenograft tumors treated with vehicle control (gray circles; N=6) is shown, 4 Gy RT alone (red squares; N=5), 3 mg/kg i.p. LP-184 alone (green triangles; N=6), and RT+LP-184 (blue inverted triangles; N=10). Error bars represent SEM.

CC1=C2C(=CC(C)C2CN(O)C(N)=O)C(=O)[C@](C)(O)C12CC2 (single isomer, unassigned; (-)) [LP-184, (−)-hydroxyureamethyl acylfulvene]
interaction of radiation with LP-184 on tumor volume (synergy): synergized | interaction of radiation with LP-184 on tumor volume (synergy) (listed as hydroxyureamethyl acylfulvene): synergy | mean terminal tumor volume of LP-184+RT group relative to LP-184 alone or RT alone (day 21): statistically significant differences; also recorded: statistically smaller | mean terminal tumor volume of LP-184+RT group relative to LP-184 alone or RT alone (day 21, listed as hydroxyureamethyl acylfulvene): statistically smaller | mean tumor volume, fold lower in LP-184+RT animals compared to LP-184 alone animals (4 Gy RT once weekly followed next day by 3 mg/kg i.p. LP-184, 3 weeks, terminal tumors day 21, p=0.017): ~1.8 fold | comparison of excised xenograft tumors at study termination across treatment arms (LP-184+RT group, day 21, FIG. 3): smallest mean volume | efficacy of combination therapy using post-radiation treatment (post-radiation treatment with LP-184, pancreatic cancer): effective
